Results as given in US20260184675A1, “CHIRAL ISOMERIC SULFITE COMPOUND AND APPLICATION THEREOF” (Chengdu Hanova BioSciences Co., Ltd, priority 2024, published 2026).

Columns and labels:
[1] = system: pest eggs of Tetranychus cinnabarinus; assay: Effect on hatching of pest eggs of Tetranychus cinnabarinus, leaf disc method; format: in vivo; details: for Hatching rate (%): 7 days after insecticide delivery; for inhibitory effect on the hatching of pest eggs of Tetranychus cinnabarinus (in words): 1 ppm
Description: • (1) Preparation of leaf discs containing eggs: 20 female adult mites of Tetranychus cinnabarinus were transferred onto leaf discs of Vicia faba with a diameter of 2.0 cm (with wetted filter paper at the bottom), then covered it with a lidded culture dish and cultivated under moisturizing conditions, the adult mites were removed within 36 hours and microscopic examination and counting were performed on leaf discs containing eggs. • (2) Investigation of egg population base: Before pesticide soaking, a microscopic examination was conducted on the egg basic number of each leaf disc, with 2 replicates set for each treatment. • (3) Pesticide soaking treatment: The leaf butterflies loaded with mite eggs were soaked in clear water and sulfite compounds for 10 seconds, respectively, then taken out and cultivated under moisturizing conditions. Each treatment should be repeated for no less than 3 times. • (4) Cultivation and observation: The […] were cultivated under normal conditions. Five days after insecticide delivery, the hatching status of mite eggs was investigated. • Note: The temperature and humidity conditions of the constant temperature and humidity incubator after the treatment should be controlled so as to avoid excessive temperature differences, which may cause generation and dripping of condensate water in the culture dish, resulting in abnormal death of eggs due to soaking in water; it is also necessary to ensure sufficient strong ambient light, without directing irradiating the leaves. • (5) Survey of Results: The experimental materials of each treatment group were regularly hydrated and moisturized, and the hatching of eggs was observed. On the 7th day after insecticide delivery, the number of hatched eggs for each treatment was recorded, and the survey of results was recorded in the original notebook. According to the experimental requirements and characteristics of agents, the survey time can be shortened or extended. • 1) Surveying and recording the number of hatched eggs for each treatment. • 2) Photographing and recording whether there was any pesticide damage to the leaf discs of Vicia faba. • 3) Recording the developmental status of experimental mite eggs, behavior status of nymph mites, including abnormal phenomena such as delayed or stopped development of mite eggs, difficulty in breaking hull for nymph mites, or painful struggles after hatching, etc. • (6) Calculation method: Based on the survey data, the prevention and control effect of each treatment was calculated according to the following formula, and the calculation results were kept to two decimal places. [formula] [formula] [table]

[2] = system: eggs of Spodoptera litura; assay: Effect on hatching of eggs of Spodoptera litura, egg piece soaking; format: in vivo; details: 500 ppm; for Hatching rate (%), Replicate 1 / Hatching rate (%), Replicate 2 / Hatching rate (%), Replicate 3 / Number of unhatched larvae 4 days after insecticide delivery, Replicate 1 / Number of unhatched larvae 4 days after insecticide delivery, Replicate 2 / Number of unhatched larvae 4 days after insecticide delivery, Replicate 3: Spodoptera litura eggs; for Hatching rate (%), Replicate 1 / Hatching rate (%), Replicate 2 / Hatching rate (%), Replicate 3: 4 days after delivery; for Number of unhatched larvae 4 days after insecticide delivery, Replicate 1 / Number of unhatched larvae 4 days after insecticide delivery, Replicate 2 / Number of unhatched larvae 4 days after insecticide delivery, Replicate 3: soaked 10 minutes
Description: • (1) Preparation of paper containing eggs: the egg mass was cut into small pieces, each containing about 60 eggs, soaked in a preformulated test agent for 10 minutes together with paper for egg raising (concentration of each compound of 500 ppm). After taken out, absorbent paper was used to absorb the excess solution adhered to the paper for egg raising and egg pieces. (2) Cultivation: Each egg piece was separately placed in a glass test tube (5.0 cm in height, 2.5 cm in diameter, the same below), which was sealed with plastic paper punctured with fine holes using insect needles and cultivated in an artificial climate chamber at a temperature of (24±1° C.), a relative humidity of (80±10) %, and a photoperiod of L:D=12:12. When the eggs developed until they were about to hatch, castor leaves with a diameter of about 3 cm were added for feeding the hatching larvae; • (3) Observation: the number of hatched and unhatched eggs per egg piece was checked and recorded, and the hatching rate of eggs was calculated according to the formula. Each treatment was repeated for 3 times. • (4) Survey of results: The experimental materials of each treatment group were regularly hydrated and moisturized, and the hatching of eggs was observed. On the 4th day after insecticide delivery, the number of hatched eggs for each treatment was recorded, and the survey of results was recorded in the original notebook. According to the experimental requirements and characteristics of agents, the survey time can be shortened or extended. • 1) Surveying and recording the number of hatched eggs for each treatment. • 2) Recording the developmental status of experimental eggs of Spodoptera litura, behavior status of nymphs, including abnormal phenomena such as delayed or stopped development of eggs of Spodoptera litura, etc. • (5) Calculation method: Based on the survey data, the prevention and control effect of each treatment was calculated according to the following formula, and the calculation results were kept to two decimal places. [formula] [formula]

Magnaporthe grisea = format: cell-based; details: 100 ppm; for Average antifungal rate (%) / Antifungal rate of Magnaporthe grisea (%), Replicate 1 / Antifungal rate of Magnaporthe grisea (%), Replicate 2 / Antifungal rate of Magnaporthe grisea (%), Replicate 3: 96-well plate; for Average antifungal rate (%): average of 3 replicates

SMILES	Hatching rate (%) ([1]; 0.25 mg/L, Replicate 1)	Hatching rate (%) ([1]; 0.25 mg/L, Replicate 2)	Number of hatched larvae 7 days after insecticide delivery ([1]; 0.25 mg/L, Replicate 1)	Number of hatched larvae 7 days after insecticide delivery ([1]; 0.25 mg/L, Replicate 2)	Hatching rate (%) ([1]; 0.5 mg/L, Replicate 1)	Hatching rate (%) ([1]; 0.5 mg/L, Replicate 2)	Number of hatched larvae 7 days after insecticide delivery ([1]; 0.5 mg/L, Replicate 2)	Hatching rate (%) ([1]; 1 mg/L, Replicate 1)	Hatching rate (%) ([1]; 1 mg/L, Replicate 2)	Number of hatched larvae 7 days after insecticide delivery ([1]; 1 mg/L, Replicate 1)	Number of hatched larvae 7 days after insecticide delivery ([1]; 1 mg/L, Replicate 2)	inhibitory rate against Magnaporthe grisea (in words) (Magnaporthe grisea)	Average antifungal rate (%) (Magnaporthe grisea)	Antifungal rate of Magnaporthe grisea (%), Replicate 1 (Magnaporthe grisea)	Antifungal rate of Magnaporthe grisea (%), Replicate 2 (Magnaporthe grisea)	Antifungal rate of Magnaporthe grisea (%), Replicate 3 (Magnaporthe grisea)	Number of hatched larvae 7 days after insecticide delivery ([1]; 0.5 mg/L, Replicate 1)	inhibitory effect on the hatching of pest eggs of Tetranychus cinnabarinus (in words) [1]	inhibitory activity on the hatching of eggs of Spodoptera litura (in words) [2]	Hatching rate (%), Replicate 1 [2]	also measured
CCC(COc1ccc(Cl)cc1Cl)OS(=O)OCCF [19-(R,R)]	75.00%	76.00%	18	18	36.23%	36.00%	34	14.89%	16.67%	40	55	strong inhibitory rate	82.77%	81.29%	83.56%	83.45%					Hatching rate (%), Replicate 1 ([2]; listed as 19-(R, R)): 50.85%; Hatching rate (%), Replicate 2 ([2]; listed as 19-(R, R)): 51.61%; Hatching rate (%), Replicate 3 ([2]; listed as 19-(R, R)): 50.79%; Number of unhatched larvae 4 days after insecticide delivery, Replicate 1 ([2]; listed as 19-(R, R)): 29; Number of unhatched larvae 4 days after insecticide delivery, Replicate 2 ([2]; listed as 19-(R, R)): 30; Number of unhatched larvae 4 days after insecticide delivery, Replicate 3 ([2]; listed as 19-(R, R)): 31
CC[C@H](COc1ccc(Cl)cc1Cl)OS(=O)OCCF (stereo partly drawn) [19-(R,S)]	39.68%	41.38%	38	34	2.08%	3.57%	54	0.00%	0.00%	59	67	strong inhibitory rate	100.04%	99.73%	100.15%	100.24%	47	excellent inhibitory effects	good inhibitory activities	15.63%	Hatching rate (%), Replicate 2 [2]: 15.25%; Hatching rate (%), Replicate 3 [2]: 16.67%; Number of unhatched larvae 4 days after insecticide delivery, Replicate 1 [2]: 54; Number of unhatched larvae 4 days after insecticide delivery, Replicate 2 [2]: 50; Number of unhatched larvae 4 days after insecticide delivery, Replicate 3 [2]: 50
CC[C@@H](COc1ccc(Cl)cc1Cl)OS(=O)OCCF (stereo partly drawn) [19-(S,R)]	43.55%	45.61%	35	31	5.13%	5.26%	54	0.00%	0.00%	60	68	strong inhibitory rate	99.77%	100.10%	99.34%	99.87%	74	excellent inhibitory effects	good inhibitory activities	15.79%	Hatching rate (%), Replicate 2 [2]: 15.38%; Hatching rate (%), Replicate 3 [2]: 15.38%; Number of unhatched larvae 4 days after insecticide delivery, Replicate 1 [2]: 48; Number of unhatched larvae 4 days after insecticide delivery, Replicate 2 [2]: 55; Number of unhatched larvae 4 days after insecticide delivery, Replicate 3 [2]: 44
CCC(COc1ccc(Cl)cc1Cl)OS(=O)OCCF [19-(S,S)]	65.52%	69.86%	20	22	20.90%	21.31%	48	15.25%	14.29%	50	54	strong inhibitory rate	84.69%	86.52%	83.17%	84.38%	53				Hatching rate (%), Replicate 1 ([2]; listed as 19-(S, S)): 50.00%; Hatching rate (%), Replicate 2 ([2]; listed as 19-(S, S)): 51.72%; Hatching rate (%), Replicate 3 ([2]; listed as 19-(S, S)): 50.91%; Number of unhatched larvae 4 days after insecticide delivery, Replicate 1 ([2]; listed as 19-(S, S)): 30; Number of unhatched larvae 4 days after insecticide delivery, Replicate 2 ([2]; listed as 19-(S, S)): 28; Number of unhatched larvae 4 days after insecticide delivery, Replicate 3 ([2]; listed as 19-(S, S)): 27
